Results from patent US9408393B2, “Bismuth-thiols as antiseptics for agricultural, industrial and other uses” (Microbion Corporation, priority 2010, dated 2016).
Where two headings read alike, the source gives them in different places.

Tests used:
[1] = test system: lawn of MRSA (Methicillin-resistant S. aureus); experiment: Antibiotic-soaked discs on bacterial lawn with and without BisEDT; type: cell-based, Staphylococcus aureus; details: antibiotic discs combined with BisEDT 0.05 μg/ml
Experimental: FIGS. 4A and 4B show the subinhibitory BisEDT reversing antibiotic-resistance to several antibiotics. Effects of antibiotics with and without BisEDT (0.05 μg/ml) on a lawn of MRSA (Methicillin-resistant S. aureus) is shown. […] [GM=gentamicin, CZ=cefazolin, FEP=cefepime, IPM=imipenim, SAM=ampicillin/sulbactam, LVX=levofloxacin.

[2] = test system: S. epidermidis biofilm; experiment: Biofilm prevention concentration (BPC), BisEDT and antibiotics; type: cell-based, Staphylococcus epidermidis; details: 0.05 μg/ml BisEDT
Experimental: (§1) S. epidermidis grown in TSB+2% glucose in polystyrene plates for 48 h at 37° C. Gatifloxacin (GF), clindamycin (CM), minocycline (MC), gentamicin (GM), vancomycin (VM), cefazolin (CZ), nafcillin (NC), and rifampicin (RP). […]

[3] = test system: MRSA clinical isolates biofilm; experiment: Biofilm-prevention concentration (BPC) in BHIG/X medium with subMIC BisEDT; type: cell-based, Staphylococcus aureus; details: 12 MRSA clinical isolates, mean ± SD
Experimental: (§2) Broth dilution antimicrobial susceptibility studies were performed against 12 MRSA strains using several antibiotics combined with subMIC levels of BisEDT (Table 18). Both the biofilm-prevention concentration (BPC) and the minimum inhibitory concentration (MIC) were determined in a special biofilm culture medium (BHIG/X). […] These strains were already sensitive to vancomycin, but were made considerably moreso in the presence of subMIC BisEDT.

[4] = test system: S. epidermidis; experiment: Broth dilution MIC/MBC, BT-antibiotic combinations; type: cell-based, Staphylococcus epidermidis; details: S. epidermidis S2400-1
Experimental: Materials & Methods. Susceptibility studies were performed by broth dilution in 96-well tissue culture plates (Nalge Nunc International, Denmark) in accordance with NCCLS protocols (National Committee for Clinical Laboratory Standards. (1997). Methods for Dilution Antimicrobial Susceptibility Tests for Bacteria that Grow Aerobically: Approved Standard M7-A2 and Informational Supplement M100-S10. NCCLS, Wayne, Pa., USA).
Briefly, overnight bacterial cultures were used to prepare 0.5 McFarland standard suspensions, which were further diluted 1:50 (˜2×10^6 cfu/mL) in cation-adjusted Mueller-Hinton broth medium (BBL, Cockeysville, Md., USA). BTs (prepared as described above) and antibiotics were added at incremental concentrations, keeping the final volume constant at 0.2 mL. Cultures were incubated for 24 h at 37° C. and turbidity was assessed by absorption at 630 nm using an ELISA plate reader (Biotek Instruments, Winooski, Vt., USA) according to the manufacturer's recommendations. […] Viable bacterial counts (cfu/mL) were determined by standard plating on nutrient agar.
The checkerboard method was used to assess the activity of antimicrobial combinations. The fractional inhibitory concentration index (FICI) and the fractional bactericidal concentration index (FBCI) were calculated, according to Eliopoulos et al. (Eliopoulos and Moellering, (1996) Antimicrobial combinations. In Antibiotics in Laboratory Medicine (Lorian, V., Ed.), pp. 330-96, Williams and Wilkins, Baltimore, Md., USA). Synergy was defined as an FICI or FBCI index of […], no interaction at >0.5-4 and antagonism at >4 (Odds, F C (2003) Synergy, antagonism, and what the chequerboard puts between them. Journal of Antimicrobial Chemotherapy 52:1). Synergy was also defined conventionally as ≧4-fold decrease in antibiotic concentration.

[5] = test system: MRSA clinical isolates; experiment: Broth dilution MIC in BHIG/X medium with subMIC BisEDT; type: cell-based, Staphylococcus aureus; details: for MIC: Staphylococcus aureus, MRSA, 12 MRSA clinical isolates, BHIG/X, mean ± SD, read-out: MIC
Experimental: as §2
In this particular study, the data indicated synergy between BisEDT and cefepime (FIC<0.5), with many of the isolates at the breakpoint for sensitivity.

[6] = test system: MRSA clinical isolates; details: cited from earlier work; for MIC Standards, R (resistance): Standard MIC breakpoint for resistance; for MIC Standards, S (antibiotic sensitivity): Standard MIC breakpoint for sensitivity
[7] = test system: S. epidermidis S2400-1 biofilm; experiment: Biofilm prevention, BisEDT-antibiotic combinations; type: cell-based, Staphylococcus epidermidis
Experimental: as §1

[8] = test system: S. epidermidis; experiment: Growth inhibition (MIC) and MBC, BisEDT and antibiotics; type: cell-based, Staphylococcus epidermidis
Source text: Results are expressed as the mean change in MIC (dilution steps) with increasing BisEDT (n=3). See legend in FIG. 5 for antibiotic definitions.
The MIC change was most pronounced for clindamycin and gentamicin, followed by vancomycin, cefazolin, minocycline, gatifloxacin and nafcillin, with rifampicin unaffected.
Minimum bactericidal concentration (MBC) for most antibiotics tested against S. epidermidis decreased slightly with subMIC BisEDT. […] Clindamycin is a bacteriostatic agent, which explains its lack of bactericidal activity. Cefazolin resistance was reversed with respect to the MBC [Domenico et al., 2003]. These effects were additive.

[9] = test system: P. aeruginosa; experiment: Checkerboard broth microdilution MIC and FICI; type: cell-based, Pseudomonas aeruginosa; details: compound alone; for MIC: Pseudomonas aeruginosa, read-out: MIC (μg/mL) Alone
Experimental: The effects of combinations of microparticulate Bis-EDT and four Bis-EDT analogs prepared as described above, and other agents against representative strains of several Gram-negative pathogenic bacteria were tested. A modification of a common laboratory method was used to determine synergism (FICI≦0.5), enhancement (0.5<FICI≦1.0), antagonism (FICI>4.0) and indifference (1.0<FICI≦4.0) used fractional inhibitory concentrations (FICs) and FIC indices (FICI) (Eliopoulos G and R Moellering. 1991. Antimicrobial combinations. In Antibiotics in Laboratory Medicine, Third Edition, edited by V Lorian. Williams and Wilkins, Baltimore, Md., pp. 432-492; Odds, 2003 J. Antimicrob. Chemother. 52(1):1). The checkerboard technique was used to determine FIC indices and was employed in this study.
Stock solutions of all test articles were prepared at 40× the final target concentration in the appropriate solvent. […] The final drug concentrations in the FIC assay plates were set to bracket the MIC value of each agent for each test organism, unless the strain was totally resistant to the test agent. […] The test organisms were originally received from clinical sources, or from the American Type Culture Collection. Upon receipt, the isolates were streaked onto Tryptic Soy Agar II (TSA). Colonies were harvested from these plates and a cell suspension was prepared in an appropriate broth growth medium containing cryoprotectant. Aliquots were then frozen at −80° C. The frozen seeds of the organisms to be tested in a given assay were thawed, streaked for isolation onto TSA plates, and incubated at 35° C. All organisms were tested in Mueller Hinton II Broth (Becton Dickinson, Lot No. 9044411). The broth was prepared at 1.05× normal weight/volume to offset the 5% volume of the drugs in the final test plates.
Minimal Inhibitory Concentration (MIC) values were previously determined using the broth microdilution method for aerobic bacteria (Clinical and Laboratory Standards Institute (CLSI). Methods for Dilution Antimicrobial Susceptibility Tests for Bacteria That Grow Aerobically; Approved Standard—Eighth Edition. CLSI document M07-A8 [ISBN 1-56238-689-1]. Clinical and Laboratory Standards Institute, 940 West Valley Road, Suite 1400, Wayne, Pa. 19087-1898 USA, 2009.).
FIC values were determined using a broth microdilution method previously described (Sweeney et al., 2003 Antimicrob. Agents Chemother. 47(6):1902-1906). To prepare the test plates, automated liquid handlers (Multidrop 384, Labsystems, Helsinki, Finland; Biomek 2000 and Multimek 96, Beckman Coulter, Fullerton Calif.) were used to conduct serial dilutions and liquid transfers.
The appropriate wells of standard 96-well microdilution plates (Falcon 3918) were filled with 150 μL of the appropriate solvent in columns 2-12 using the Multidrop 384. Three hundred microliters of each secondary test drug was added to each well in Column 1 of the plates. These plates were used to prepare the drug “mother plates” which provided the serial drug dilutions for the drug combination plates. The Biomek 2000 was used to transfer 150 μL of each secondary drug solution (40×) from the wells in Column 1 of the mother plate and to make eleven 2-fold serial dilutions. Mother plates of Bis-EDT (and analogs) were serial diluted top to bottom by hand, using a multichannel pipette. Two mother plates, one for each secondary drug and one for Bis-EDT (or analogs), were combined to form a “checkerboard” pattern by transfer of equal volumes (using a multi-channel pipette) to the drug combination plate. Row H and Column 12 each contained serial dilutions of one of the agents alone for determination of the MIC.
The “daughter plates” were loaded with 180 μL of test medium using the Multidrop 384. Then, the Multimek 96 was used to transfer 10 μL of drug solution from each well of the drug combination mother plate to each corresponding well of the daughter plate in a single step.

[10] = test system: Klebsiella pneumoniae; experiment: Single-point BisEDT-antibiotic combination FICI; type: cell-based; details: KP 1231
[11] = test system: Acinetobacter baumanii; experiment: Single-point BisEDT-antibiotic combination FICI; type: cell-based; details: Abau 2594
[12] = test system: Pseudomonas aeruginosa; experiment: Single-point BisEDT-antibiotic combination FICI; type: cell-based; details: PA 1380
[13] = test system: Bukholderia multivorans; experiment: Single-point BisEDT-antibiotic combination FICI; type: cell-based; details: Bmult 5665
[14] = test system: Escherichia coli; experiment: Single-point BisEDT-antibiotic combination FICI; type: cell-based
[15] = test system: Burkholderia cepacia; experiment: Single-point BisEDT-antibiotic combination FICI; type: cell-based; details: Bcep 1756

Compound: Cc1nnc(SCC2=C(C(=O)O)N3C(=O)[C@@H](NC(=O)Cn4cnnn4)[C@H]3SC2)s1 [Cefazolin, cefazolin]
- Antibiotic action on MRSA lawn with subMIC BisEDT [1]: enhanced antibiotic action
- Change of biofilm prevention concentration (BPC) [2]: modest decreases
- BPC ([3]; BisEDT 0 μg/mL): 109 ± 86 µg/mL
- BPC ([3]; BisEDT 0.025 μg/mL): 76 ± 86 µg/mL
- BPC ([3]; BisEDT 0.05 μg/mL): 76 ± 105 µg/mL
- BPC ([3]; BisEDT 0.1 μg/mL): 34 ± 28 µg/mL
- Synergy, MBC [4]: + (Synergy was also defined conventionally as ≧4-fold decrease in antibiotic concentration)
- Synergy, MIC [4]: + (Synergy was also defined conventionally as ≧4-fold decrease in antibiotic concentration)
- Δ (0.05 BE), MIC ([4]; 0.05 μg/ml BisEDT): 4.00
- Δ (0.1 BE), MBC ([4]; 0.1 μg/ml BisEDT): 4.80
- MIC ([4]; BisEDT 0 μg/ml): 32 µg/mL
- MBC ([4]; BisEDT 0.0 μg/ml): 48 µg/mL
- MIC ([4]; BisEDT 0.05 μg/ml): 8 µg/mL
- MBC ([4]; BisEDT 0.1 μg/ml): 10 µg/mL
- MIC ([4]; BisEDT 0.1 μg/ml): 1 µg/mL
- MIC ([5]; BisEDT 0 μg/mL): 93 ± 75 µg/mL
- MIC ([5]; BisEDT 0.025 μg/mL): 99 ± 76 µg/mL
- MIC ([5]; BisEDT 0.05 μg/mL): 90 ± 60 µg/mL
- MIC ([5]; BisEDT 0.1 μg/mL): 45 ± 32 µg/mL
- MIC Standards, R (resistance) [6]: ≧32 μg/ml
- MIC Standards, S (antibiotic sensitivity) [6]: ≦8 μg/ml
- Δ (0.05 BE), biofilm prevention ([7]; 0.05 μg/ml BisEDT): 2.8
- Biofilm Prevention (antibiotic concentration) ([7]; BisEDT 0 μg/ml): 28 µg/mL
- Biofilm Prevention (antibiotic concentration) ([7]; BisEDT 0.05 μg/ml): 10 µg/mL
- Biofilm Prevention (antibiotic concentration) ([7]; BisEDT 0.1 μg/ml): 1 µg/mL
- Reduction in MBC with subMIC BisEDT [8]: 4- to 5 fold
- MIC change (growth inhibition) with BisEDT ([8]; 0.1 μg/ml (0.5 μM) BisEDT): resistance was reversed to clinically relevant levels

Compound: CO/N=C(\C(=O)N[C@@H]1C(=O)N2C(C(=O)[O-])=C(C[N+]3(C)CCCC3)CS[C@H]12)c1csc(N)n1 [Cefepime]
- Antibiotic action on MRSA lawn with subMIC BisEDT [1]: enhanced antibiotic action
- MIC (μg/mL) Alone ([9]; P. aeruginosa 103): 1 µg/mL
- MIC (μg/mL) Alone ([9]; P. aeruginosa 1479): 8 µg/mL
- MIC (μg/mL) Alone ([9]; P. aeruginosa 2566): 16 µg/mL
- MIC ([9]; P. aeruginosa 103): 2 µg/mL
- MIC ([9]; P. aeruginosa 1381): 32 µg/mL
- MIC ([9]; P. aeruginosa 1384): 2 µg/mL
- MIC ([9]; P. aeruginosa 1474): 2 µg/mL
- MIC ([9]; P. aeruginosa 1479): 4 µg/mL
- MIC ([9]; P. aeruginosa 2566): 8 µg/mL
- MIC ([9]; P. aeruginosa 2568): 2 µg/mL
- FICI, single-point BisEDT-antibiotic combination [10]: 1.11
- FICI, single-point BisEDT-antibiotic combination [11]: 0.71
- BPC ([3]; BisEDT 0 μg/mL): 24 ± 37 µg/mL
- BPC ([3]; BisEDT 0.025 μg/mL): 27 ± 28 µg/mL
- BPC ([3]; BisEDT 0.05 μg/mL): 18 ± 16 µg/mL
- BPC ([3]; BisEDT 0.1 μg/mL): 5.0 ± 7.3 µg/mL
- Isolates in which BisEDT significantly enhanced inhibitory activity of cefepime ([5]; BisEDT at 0.1 μg/ml, 12 cefepime-resistant MRSA): 11 of 12
- MIC ([5]; BisEDT 0 μg/mL): 45 ± 32 µg/mL
- MIC ([5]; BisEDT 0.025 μg/mL): 32 ± 28 µg/mL
- MIC ([5]; BisEDT 0.05 μg/mL): 37 ± 24 µg/mL
- MIC ([5]; BisEDT 0.1 μg/mL): 9.3 ± 6.1 µg/mL
- FIC, BisEDT and cefepime ([5]; cefepime-resistant MRSA isolates): < 0.5
- FICI, single-point BisEDT-antibiotic combination [12]: 0.62
- FICI, single-point BisEDT-antibiotic combination [13]: 0.96
- FICI, single-point BisEDT-antibiotic combination ([14]; EC 102): 0.87
- FICI, single-point BisEDT-antibiotic combination ([14]; EC 2232): 0.96
- MIC Standards, R (resistance) [6]: ≧32 μg/ml
- MIC Standards, S (antibiotic sensitivity) [6]: ≦8 μg/ml
- FICI, single-point BisEDT-antibiotic combination [15]: 1.34
